Test [1] deals with T1, human GCGR (Homo sapiens, UniProt P47871).
T1 construct: expressed in transfected cells; growth medium holds Blasticidin and Hygromycin
Nature of the test: cAMP activity assay at the Glucagon receptor (GCGR). It counts as cell-based. As to conditions: for hGCGR/hGLP1R (hTone): ratio of GCGR EC50 to GLP1R EC50. In outline: (§1)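 Peptides serially diluted from DMSO (10 points) and added to frozen-stock cells bearing human GLP1R (10,000 cells/well) or GCGR (30,000 cells/well), 1 h at RT, dark. EC50 by four-parameter logistic fit of HitHunter cAMPXS luminescence, read following overnight RT incubation.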

Test [2] has as its target T2, human GLP1R (Homo sapiens, UniProt P43220).
T2 construct: expressed in transfected cells; growth medium holds Blasticidin and Hygromycin
Nature of the test: cAMP activity assay at the GLP-1 receptor (GLP1R). It counts as cell-based. The gist of the method:
as §1

[3] abbreviates: summary statement: EC50 at each of the glucagon and GLP-1 receptors, read-out: EC50 at the glucagon receptor.
[4] abbreviates: summary statement: EC50 at each of the glucagon and GLP-1 receptors, read-out: EC50 at the GLP-1 receptor.
[5] abbreviates: cells expressing human GLP1R, cAMP production, buffer with or without 20% human serum (not stated which), read-out: GLP1R EC50 human.

Read-outs that look alike come from different tables or passages of the source. Numbered stars: 1 amine (or outer) side, 2 acyl side, 3 side chain; on linkers, the order of the positions; unused ones are H or OH. Square brackets hold non-standard residues; d marks the D form. Side chains are listed from the residue outwards. Peptide text beside a SMILES is read from it. * marks the point of attachment. C20 diacid = O=C(O)CCCCCCCCCCCCCCCCCCC(=O)*; Phe(4-CH2NH2) = NCc1ccc(C[C@H](N)C(=O)O)cc1; C18 diacid = O=C(O)CCCCCCCCCCCCCCCCC(=O)*; γGlu = O=C(O)[C@H](CCC(=O)[*:2])N[*:1]; Met(O2) = CS(=O)(=O)CC[C@H](N)C(=O)O; αMeD = C[C@](N)(CC(=O)O)C(=O)O; AEEA = NCCOCCOCC(=O)O; Aib = CC(C)(N)C(=O)O

T1 sequence (P47871 26-477): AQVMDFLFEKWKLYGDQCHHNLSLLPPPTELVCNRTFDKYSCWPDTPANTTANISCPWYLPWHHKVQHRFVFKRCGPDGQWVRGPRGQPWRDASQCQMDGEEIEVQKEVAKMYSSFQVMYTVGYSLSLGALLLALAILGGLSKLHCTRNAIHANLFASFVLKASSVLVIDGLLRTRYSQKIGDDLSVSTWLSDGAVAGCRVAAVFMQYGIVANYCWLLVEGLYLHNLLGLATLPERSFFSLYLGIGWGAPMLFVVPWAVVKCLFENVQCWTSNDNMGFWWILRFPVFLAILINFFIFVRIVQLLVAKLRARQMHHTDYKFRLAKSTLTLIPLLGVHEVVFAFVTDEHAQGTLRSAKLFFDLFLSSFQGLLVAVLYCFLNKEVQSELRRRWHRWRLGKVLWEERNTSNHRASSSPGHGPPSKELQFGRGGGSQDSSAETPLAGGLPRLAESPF
T2 sequence (P43220 24-463): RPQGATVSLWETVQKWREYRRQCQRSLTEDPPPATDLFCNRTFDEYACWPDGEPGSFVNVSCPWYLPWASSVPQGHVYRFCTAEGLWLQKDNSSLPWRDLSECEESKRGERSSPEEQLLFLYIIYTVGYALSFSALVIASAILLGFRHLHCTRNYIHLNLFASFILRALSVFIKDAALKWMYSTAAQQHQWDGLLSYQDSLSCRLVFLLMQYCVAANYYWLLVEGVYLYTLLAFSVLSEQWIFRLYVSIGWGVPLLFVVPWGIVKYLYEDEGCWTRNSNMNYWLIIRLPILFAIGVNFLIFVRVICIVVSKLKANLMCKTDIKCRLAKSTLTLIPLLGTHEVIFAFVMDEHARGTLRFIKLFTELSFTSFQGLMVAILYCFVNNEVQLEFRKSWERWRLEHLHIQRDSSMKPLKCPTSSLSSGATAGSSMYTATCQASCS

What is called EC50 is the concentration that produces a half-maximal response. For `CC(C)C[C@H](NC(=O)[C@H](Cc1ccc(O)cc1)NC(=O)[C@H](CCCCN)NC(=O)[C@H](CO)NC(=O)[C@H](Cc1ccc(O)cc1)NC(=O)[C@H](CC(=O)O)NC(=O)[C@H](CO)NC(=O)[C@@H](NC(=O)[C@H](Cc1ccccc1)NC(=O)[C@@H](NC(=O)CNC(=O)[C@H](CCC(N)=O)NC(=O)C(C)(C)NC(=O)[C@@H](N)Cc1c[nH]cn1)[C@@H](C)O)[C@@H](C)O)C(=O)N[C@@H](CC(=O)O)C(=O)N[C@@H](C)C(=O)N[C@@H](CCCNC(=N)N)C(=O)N[C@@H](C)C(=O)N[C@@H](C)C(=O)N[C@@H](CCCCNC(=O)COCCOCCNC(=O)COCCOCCNC(=O)CC[C@H](NC(=O)CCCCCCCCCCCCCCCCC(=O)O)C(=O)O)C(=O)N[C@@H](CC(=O)O)C(=O)N[C@@H](Cc1ccccc1)C(=O)N[C@H](C(=O)N[C@@H](CCC(N)=O)C(=O)N[C@@H](Cc1c[nH]c2ccccc12)C(=O)N[C@@H](CC(C)C)C(=O)N[C@@H](CCS(C)(=O)=O)C(=O)N[C@@H](CCC(N)=O)C(=O)N[C@H](C(N)=O)[C@@H](C)O)C(C)C` [TP600] (H-H[Aib]QGTFTSDYSKYLDARAAK([AEEA-AEEA-γGlu-C18 diacid])DFVQWL[Met(O2)]QT-NH2; N-terminus assumed), the “hGCGR/hGLP1R (hTone)” value in test [1] worked out at 3.1. Also, the EC50 in test [1] (setting [3]) and in test [2] (setting [4]) was under 5 nM each time.
Regarding `CC(C)C[C@H](NC(=O)[C@H](Cc1ccc(O)cc1)NC(=O)[C@H](CCCCN)NC(=O)[C@H](CO)NC(=O)[C@H](Cc1ccc(O)cc1)NC(=O)[C@H](CC(=O)O)NC(=O)[C@H](CO)NC(=O)[C@@H](NC(=O)[C@H](Cc1ccccc1)NC(=O)[C@@H](NC(=O)CNC(=O)[C@H](CCC(N)=O)NC(=O)C(C)(C)NC(=O)[C@@H](N)Cc1c[nH]cn1)[C@@H](C)O)[C@@H](C)O)C(=O)N[C@@H](CC(=O)O)C(=O)N[C@@H](C)C(=O)N[C@@H](CCCNC(=N)N)C(=O)N[C@@H](C)C(=O)N[C@@H](C)C(=O)N[C@@H](CCC(N)=O)C(=O)N[C@@H](CC(=O)O)C(=O)N[C@@H](Cc1ccccc1)C(=O)N[C@H](C(=O)N[C@@H](CCC(N)=O)C(=O)N[C@@H](Cc1c[nH]c2ccccc12)C(=O)N[C@@H](CC(C)C)C(=O)N[C@@H](CCS(C)(=O)=O)C(=O)N[C@@H](CCCCNC(=O)COCCOCCNC(=O)COCCOCCNC(=O)CC[C@H](NC(=O)CCCCCCCCCCCCCCCCC(=O)O)C(=O)O)C(=O)N[C@H](C(N)=O)[C@@H](C)O)C(C)C` [TP602] (H-H[Aib]QGTFTSDYSKYLDARAAQDFVQWL[Met(O2)]K([AEEA-AEEA-γGlu-C18 diacid])T-NH2), the “hGCGR/hGLP1R (hTone)” value in test [1] is listed as 6.3. Besides, the EC50 in test [1] (setting [3]) and in test [2] (setting [4]) was under 5 nM each time.
As to `CC(C)C[C@H](NC(=O)[C@H](Cc1ccc(O)cc1)NC(=O)[C@H](CCCCN)NC(=O)[C@H](CO)NC(=O)[C@H](Cc1ccc(O)cc1)NC(=O)[C@H](CC(=O)O)NC(=O)[C@H](CO)NC(=O)[C@@H](NC(=O)[C@H](Cc1ccccc1)NC(=O)[C@@H](NC(=O)CNC(=O)[C@H](CCC(N)=O)NC(=O)C(C)(C)NC(=O)[C@@H](N)Cc1c[nH]cn1)[C@@H](C)O)[C@@H](C)O)C(=O)N[C@@H](CC(=O)O)C(=O)N[C@@H](C)C(=O)N[C@@H](CCCNC(=N)N)C(=O)N[C@@H](C)C(=O)N[C@@H](C)C(=O)N[C@@H](CCC(N)=O)C(=O)N[C@@H](CC(=O)O)C(=O)N[C@@H](Cc1ccccc1)C(=O)N[C@H](C(=O)N[C@@H](CCC(N)=O)C(=O)N[C@@H](Cc1c[nH]c2ccccc12)C(=O)N[C@@H](CC(C)C)C(=O)N[C@@H](CCS(C)(=O)=O)C(=O)N[C@@H](CCCCNC(=O)COCCOCCNC(=O)COCCOCCNC(=O)CC[C@H](NC(=O)CCCCCCCCCCCCCCCCCCC(=O)O)C(=O)O)C(=O)N[C@H](C(N)=O)[C@@H](C)O)C(C)C` [TP603] (H-H[Aib]QGTFTSDYSKYLDARAAQDFVQWL[Met(O2)]K([AEEA-AEEA-γGlu-C20 diacid])T-NH2; N-terminus assumed), the “hGCGR/hGLP1R (hTone)” value in test [1] is 1.6. The concentration giving a half-maximal response (EC50) in test [1] (setting [3]) and in test [2] (setting [4]) was under 5 nM in each case.
For the molecule `CC(C)C[C@H](NC(=O)[C@H](Cc1ccc(O)cc1)NC(=O)[C@H](CCCCN)NC(=O)[C@H](CO)NC(=O)[C@H](Cc1ccc(O)cc1)NC(=O)[C@H](CC(=O)O)NC(=O)[C@H](CO)NC(=O)[C@@H](NC(=O)[C@H](Cc1ccccc1)NC(=O)[C@@H](NC(=O)CNC(=O)[C@H](CCC(N)=O)NC(=O)C(C)(C)NC(=O)[C@@H](N)Cc1c[nH]cn1)[C@@H](C)O)[C@@H](C)O)C(=O)N[C@@H](CC(=O)O)C(=O)N[C@@H](C)C(=O)N[C@@H](CCCNC(=N)N)C(=O)N[C@@H](C)C(=O)N[C@@H](C)C(=O)N[C@@H](CCC(N)=O)C(=O)N[C@@H](CC(=O)O)C(=O)N[C@@H](Cc1ccccc1)C(=O)N[C@H](C(=O)N[C@@H](CCC(N)=O)C(=O)N[C@@H](Cc1c[nH]c2ccccc12)C(=O)N[C@@H](CC(C)C)C(=O)N[C@@H](CCS(C)(=O)=O)C(=O)N[C@@H](Cc1ccc(CNC(=O)COCCOCCNC(=O)COCCOCCNC(=O)CC[C@H](NC(=O)CCCCCCCCCCCCCCCCCCC(=O)O)C(=O)O)cc1)C(=O)N[C@H](C(N)=O)[C@@H](C)O)C(C)C` [TP605] (H-H[Aib]QGTFTSDYSKYLDARAAQDFVQWL[Met(O2)][Phe(4-CH2NH2)]([AEEA-AEEA-γGlu-C20 diacid])T-NH2), the half-maximal effective concentration (EC50) in test [1] (setting [3]) and in test [2] (setting [4]) was under 5 nM throughout.
As for `CC(C)C[C@H](NC(=O)[C@H](Cc1c[nH]c2ccccc12)NC(=O)[C@H](CCC(N)=O)NC(=O)[C@@H](NC(=O)[C@H](Cc1ccccc1)NC(=O)[C@H](CC(=O)O)NC(=O)[C@H](CCCCNC(=O)COCCOCCNC(=O)COCCOCCNC(=O)CC[C@H](NC(=O)CCCCCCCCCCCCCCCCC(=O)O)C(=O)O)NC(=O)[C@H](C)NC(=O)[C@H](C)NC(=O)[C@H](CCCNC(=N)N)NC(=O)[C@H](C)NC(=O)[C@](C)(CC(=O)O)NC(=O)[C@H](CC(C)C)NC(=O)[C@H](Cc1ccc(O)cc1)NC(=O)[C@H](CCCCN)NC(=O)[C@H](CO)NC(=O)[C@H](Cc1ccc(O)cc1)NC(=O)[C@H](CC(=O)O)NC(=O)[C@H](CO)NC(=O)[C@@H](NC(=O)[C@H](Cc1ccccc1)NC(=O)[C@@H](NC(=O)CNC(=O)[C@H](CCC(N)=O)NC(=O)C(C)(C)NC(=O)[C@@H](N)Cc1c[nH]cn1)[C@@H](C)O)[C@@H](C)O)C(C)C)C(=O)N[C@@H](CCS(C)(=O)=O)C(=O)N[C@@](C)(CC(=O)O)C(=O)N[C@H](C(N)=O)[C@@H](C)O` [TP610] (H-H[Aib]QGTFTSDYSKYL[αMeD]ARAAK([AEEA-AEEA-γGlu-C18 diacid])DFVQWL[Met(O2)][αMeD]T-NH2; N-terminus assumed), in test [1], the “hGCGR/hGLP1R (hTone)” value is listed as under 0.01. Moreover, in test [2] (setting [5]), the EC50 is over 5 nM.
In the case of `CC(C)C[C@H](NC(=O)[C@H](Cc1ccc(O)cc1)NC(=O)[C@H](CCCCN)NC(=O)[C@H](CO)NC(=O)[C@H](Cc1ccc(O)cc1)NC(=O)[C@H](CC(=O)O)NC(=O)[C@H](CO)NC(=O)[C@@H](NC(=O)[C@H](Cc1ccccc1)NC(=O)[C@@H](NC(=O)CNC(=O)[C@H](CCC(N)=O)NC(=O)C(C)(C)NC(=O)[C@@H](N)Cc1c[nH]cn1)[C@@H](C)O)[C@@H](C)O)C(=O)N[C@@H](CC(=O)O)C(=O)N[C@@H](C)C(=O)N[C@@H](CCCNC(=N)N)C(=O)N[C@@H](C)C(=O)N[C@@H](C)C(=O)N[C@@H](CCCCNC(=O)COCCOCCNC(=O)COCCOCCNC(=O)CC[C@H](NC(=O)CCCCCCCCCCCCCCCCC(=O)O)C(=O)O)C(=O)N[C@@](C)(CC(=O)O)C(=O)N[C@@H](Cc1ccccc1)C(=O)N[C@H](C(=O)N[C@@H](CCC(N)=O)C(=O)N[C@@H](Cc1c[nH]c2ccccc12)C(=O)N[C@@H](CC(C)C)C(=O)N[C@@H](CCS(C)(=O)=O)C(=O)N[C@@](C)(CC(=O)O)C(=O)N[C@H](C(N)=O)[C@@H](C)O)C(C)C` [TP611] (H-H[Aib]QGTFTSDYSKYLDARAAK([AEEA-AEEA-γGlu-C18 diacid])[αMeD]FVQWL[Met(O2)][αMeD]T-NH2), the half-maximal effective concentration (EC50) was 0.2 nM in test [1] (cells expressing human GCGR, cAMP production, buffer with or without 20% human serum (not stated which), read-out: GCGR EC50 human) and over 5 nM in test [2] (setting [5]). Besides, in test [1], the “hGCGR/hGLP1R (hTone)” value is recorded as under 0.02.
In the case of `CC(C)C[C@H](NC(=O)[C@H](Cc1c[nH]c2ccccc12)NC(=O)[C@H](CCC(N)=O)NC(=O)[C@@H](NC(=O)[C@H](Cc1ccccc1)NC(=O)[C@](C)(CC(=O)O)NC(=O)[C@H](CCCCNC(=O)COCCOCCNC(=O)COCCOCCNC(=O)CC[C@H](NC(=O)CCCCCCCCCCCCCCCCC(=O)O)C(=O)O)NC(=O)[C@H](C)NC(=O)[C@H](C)NC(=O)[C@H](CCCNC(=N)N)NC(=O)[C@H](C)NC(=O)[C@](C)(CC(=O)O)NC(=O)[C@H](CC(C)C)NC(=O)[C@H](Cc1ccc(O)cc1)NC(=O)[C@H](CCCCN)NC(=O)[C@H](CO)NC(=O)[C@H](Cc1ccc(O)cc1)NC(=O)[C@H](CC(=O)O)NC(=O)[C@H](CO)NC(=O)[C@@H](NC(=O)[C@H](Cc1ccccc1)NC(=O)[C@@H](NC(=O)CNC(=O)[C@H](CCC(N)=O)NC(=O)C(C)(C)NC(=O)[C@@H](N)Cc1c[nH]cn1)[C@@H](C)O)[C@@H](C)O)C(C)C)C(=O)N[C@@H](CCS(C)(=O)=O)C(=O)N[C@@](C)(CC(=O)O)C(=O)N[C@H](C(N)=O)[C@@H](C)O` [TP612] (H-H[Aib]QGTFTSDYSKYL[αMeD]ARAAK([AEEA-AEEA-γGlu-C18 diacid])[αMeD]FVQWL[Met(O2)][αMeD]T-NH2; N-terminus assumed), the “hGCGR/hGLP1R (hTone)” value in test [1] is under 0.41. Also, the EC50 in test [1] (setting [3]) was under 5 nM; in test [2] (setting [5]), 4.95 nM; in test [2] (setting [4]) it was under 5 nM.
